Experiments:
[1] = system: IL-1β; assay: IL-1β in mice cortex by ELISA; type: in vivo, 5x-FAD mice; details: 25 and 50 mg/kg, vs 5x-FAD control
Excerpt: After the termination of experiments, the supernatant was collected and analyzed for levels of cytokines. For measuring IL-1β and IL-18, supernatant collected after NLRP3 inflammasome activation as mentioned above, was subjected to ELISA. For detection of IL-1β in mice cortex, mice cortices were isolated and homogenized in RIPA buffer to measure IL-1β in homogenates. The manufacturer’s protocol was followed for measuring the cytokines. The levels of measured cytokines were normalized with the total protein content of the cells. For total protein content of cell pellet lysed with lysis buffer (0.2 N NaCl and 1% Triton-X 100) was measured.
Hemizygous 5x-FAD transgenic mice (B6.Cg-Tg(APPSwFlLon, PSEN1*M146L*L286V) 6799Vas/Mmjax; MMRRC Strain: 034848-JAX) on congenic C57BL/6J genetic background were used for experiments. The 5x-FAD mice were genotyped using APP-specific qPCR probes to detect the transgene as per the protocol of Jackson Laboratory. Six months old 5x-FAD mice were randomly divided into three groups (n = 5), based on their body weights, with three males and two females in each group. We used mixed-cohort of males and females for our study to exclude any gender biased effect of IBC. Also, AD symptoms are more pronounced in females than in males ([Aggarwal and Mielke, 2023]), making it possible that males and females respond differently to the drug and treatment. […]

[2] = system: NLRP3 inflammasome; assay: NLRP3 inflammasome activation in primary astrocytes: immunoblotting, ASC oligomers and specks, co-localization; type: cell-based, C57BL/6J mice; details: for co-localization of CASP1 and NLRP3: 10 μM
Procedure: Primary astrocytes were first treated with microglia conditional media to induce astrogliosis ([Liddelow et al., 2017]). For this, the microglia (N9) cell line, provided by Dr. Anirban Basu (National Brain Research Centre, Gurgaon, India) was cultured in RPMI-1640. N9 cells (Passage 28-35) were seeded in 24 well plate at density 0.05 × 10^6 per well. The cells were treated with 1 μg/ml LPS, and supernatant was collected after 24 h. Seeded astrocytes were then treated with the LPS stimulated N9 cells supernatant for 24 h. Thereafter, the treatment for NLRP3 inflammasome activation was given, including priming with fresh 1 μg/ml LPS for 4 h, followed by washing and IBC or MCC950 (100 nM) treatment for 1 h in incomplete media (media without fetal bovine serum). ATP at 5 mM concentration was used as secondary signal for 30 min.
Following treatment with 5 and 10 μM IBC (1 h) and NLRP3 inflammasome activation in primary astrocytes, cells were lysed with ice-cold buffer (KCl [150 mM], HEPES-KOH [20 mM, pH 7.5], NP-40 [1%], sodium orthovanadate [1 mM], PMSF [0.1 mM] and protease inhibitor cocktail [1%]). Cells were centrifuged at 300 g for 10 min. The supernatant was collected for western blot analysis of total ASC protein. The pellet was washed with cold PBS and resuspended in 500 µL cold PBS. For the crosslinking of ASC, 2 mM of […] was added to the resuspended pellet and incubated at 37°C for 30 min in water bath. After centrifugation, the supernatant was discarded, and a 2X Laemmli buffer was added to the pellet. The samples were heated at 95°C for 5 min and subjected to western blotting for analyzing ASC oligomers.
Levels of cleaved IL-1β and caspase-1 were analyzed in cellular supernatant. The supernatant collected after the end of the experiment was incubated with StartaClean resin for 1 h at 4°C. Samples were kept on rotation so that the resin could bind properly with proteins. The concentrated resin pellet was obtained by centrifuging samples at 300 g for 10 min 2X Laemmli buffer was added to the resin pellet, heated at 95°C for 10 min, and subjected to western blotting.
Cellular lysates were prepared using radio immuno precipitation assay (RIPA) buffer for protein analysis. Briefly, the cell pellet was dissolved in RIPA buffer containing sodium fluoride, sodium orthovanadate, phenyl methyl sulfonyl fluoride (PMSF) and 1% protease inhibitor cocktail for 1 h with vertexing sample every 15 min. The supernatant was collected after high-speed centrifugation of samples for 20 min at 4°C. For analysis of proteins in mice hippocampi, the hippocampi isolated from mice brains was immediately washed with saline and stored in liquid nitrogen. For lysates preparation, tissue was homogenized in RIPA buffer substituted with sodium fluoride, sodium orthovanadate, phenyl methyl sulfonyl fluoride and 1% protease inhibitor cocktail. Total protein was measured using Bradford assay. Proteins were separated using SDS-PAGE and then transferred from gel to PVDF membrane. The protein of interest was labeled with a specific primary antibody overnight at 4°C. Further, the blot was incubated with corresponding HRP-conjugated secondary antibody for 1 h at room temperature. The band were visualized in the Genaxy Chemi Doc imaging system (Make: Syngene, Maryland, USA; Model: G: BOX, XT-4). Densitometry analysis of all the immunoblots was performed by using ImageJ software. Band density of proteins was normalized with β-actin. The phosphorylated proteins were normalized with their total forms.
Cells were seeded on coverslips in 6 well plates. After treatments, cells were fixed with 4% paraformaldehyde (PFA) for 15 min and permeabilized with 0.1% Triton-X 100 for 7 min. Blocking was done for 30 min with 2% BSA, followed by overnight incubation with primary antibody. Alexa fluor conjugated secondary antibody incubation was given to cells for 1 h for labeling. The nucleus was stained with 4,6-diamidino-2-phenylindole (DAPI) (1 μg/mL) for 10 min. […]

[3] = LPS + ATP, 5 and 10 μM, western blot
[4] = in the presence of LPS and ATP, 5 and 10 μM

SMILES: CC(C)=CCc1c(O)ccc(C(=O)/C=C/c2ccc(O)cc2)c1O [IBC, isobavachalcone]
- IL-1β level in cortex [1]: highly significant decline
- ASC speck formation ([2]; 5 μM and 10 µM, vs cells induced with ATP): highly significant (p < 0.0001) reduction
- co-localization of CASP1 and NLRP3 ([2]; in the presence of siAMPK): did not affect the co-localization
- co-localization of CASP1 and NLRP3 ([2]; vs LPS + ATP): reduced the co-localization
- ASC monomer, dimer, and oligomer formation ([2]; LPS + ATP, 5 and 10 μM): inhibited
- cleaved CASP1 in supernatant [2, 3]: reduced release
- cleaved IL-1β in supernatant [2, 3]: reduced release
- NLRP3 protein expression ([2]; LPS + ATP, western blot): no change
- AMPK phosphorylation (Thr 172) [2, 4]: significantly enhanced phosphorylation
- LC3B-II level [2, 4]: marked increase
- SQSTM1 level [2, 4]: significant decline
- inhibitory effect on IL-1b and CASP1 under AMPK knockdown ([2]; siAMPK, LPS + ATP): completely reversed
